The text below walks through data of patent publication US20080318958A1, “New utilities of tricyclic compounds” (priority 2001, published 2008).

Data set [1] relates to promoter region of the gene encoding human apoAI. Briefly: Activity to enhance the expression of human apoAI: apoAI promoter-firefly luciferase reporter in stably transfected HepG2 cells. It is filed as cell-based. To be noted: concentration that intensified the luciferase activity twice compared to DMSO control, 24 hours incubation with compound, read-out: MED (minimal effective dose). The procedure: The promoter region of the gene encoding human apoAI was isolated, and ligated upstream the structure gene of firefly luciferase to construct a reporter plasmid. The reporter plasmid and a marker plasmid conferring the neomycin resistance were co-infected to cell lines derived from human hepatoma, HepG2 cells, and the cell lines were incubated in a selection medium comprising DMEM medium containing 10% fetal calf serum supplemented with G418 (Final concentration: 0.7 mg/mL, Gibco) to give established strains that stably expressed the reporter molecule. The strains were seeded to a 96-well culture plates at a density of 50,000 cells per well, and incubated for 48 hours at 37° C. under an atmosphere of 5% carbon dioxide. Then, a solution of the compounds according to the invention in DMSO was added to the wells at final concentrations of 0 to 10 μg/mL. After further incubation for 24 hours, the cells were added with a luciferase assay reagent (Piccagene LT 7.5 registered trade mark, Toyo Ink, KK), and the luciferase activity was determined using a luminometer (MicroBeta™ TRILUX, 1 sec/well, Wallac). The concentration of the compounds, which intensified the luciferase activity twice compared to that of control (DMSO without any compound of the invention added) was set as the minimal effective dose (MED).
(In a reporter assay the amount or activity of a reporter protein is the signal.)

As to `COc1cccc(-c2ccc(-c3ccccc3)cc2)n1` [Compound I-22], in data set [1], the EC (2-fold luciferase activity) was 0.84 µM.
Consider `COc1ccc(-c2ccc(-c3ccccn3)cc2)cc1` [Compound I-40], for which, in data set [1], the EC (2-fold luciferase activity) was determined as 0.16 µM.
On the same count and under the same terms, with `c1ccc(-c2ccc(-c3cccnn3)cc2)cc1` [Compound I-25] the figure was 0.29 µM.
As a reminder, the melting point is the temperature of the solid-liquid transition. `c1ccc(-c2ccc(-c3ccccc3)nn2)cc1` [Compound I-7] yielded a melting point of 218 to 220 °C. For the same compound, the EC (2-fold luciferase activity) in data set [1] was 0.04 µM.
The compound `c1ccc(-c2ccnc(-c3ccccc3)n2)cc1` [Compound I-4] yielded a melting point of 66 to 69 °C.
The compound `COc1ccc(-c2nnc(-c3ccccc3)c3ccccc23)cc1` [Compound I-13] displayed a melting point of 175 to 177 °C.
`c1ccc(-c2ccc(-c3ncccn3)cc2)cc1` [Compound I-8] gave a melting point of 112 to 113 °C. The EC (2-fold luciferase activity) in data set [1] was 0.09 µM.
In turn, `c1ccc(-c2nnc(-c3ccccc3)c3ccccc23)cc1` [Compound I-12] came in with a melting point of 203 to 205 °C.
On to `c1ccc(-c2ccc(-c3ccc4ccccc4n3)cc2)cc1` [Compound I-17], for which, in data set [1], the EC (2-fold luciferase activity) was determined as 0.33 µM.
Consider `COc1cc(OC)nc(-c2ccc(-c3ccccc3)cc2)n1` [Compound I-24], for which, in data set [1], the EC (2-fold luciferase activity) was 2.2 µM.
`c1ccc(-c2cncc(-c3ccccc3)n2)cc1` [Compound I-6] showed a melting point of 88.5 to 90 °C. In data set [1], the EC (2-fold luciferase activity) was 3.11 µM.
Turning to `Cc1cccc(-c2ccc(-c3ccccc3)cc2)n1` [Compound I-21], the EC (2-fold luciferase activity) in data set [1] was 2.3 µM.
Still for that read-out and setting: in the case of `c1ccc(-c2ccc(-c3ccc(-c4ccccc4)nn3)cc2)cc1` [Compound I-28] it was 2.5 µM.
Compound `c1ccc(-c2ccc(-c3ccccc3)nc2)cc1` [Compound I-11] showed a melting point of 176 to 177 °C. Further, the EC (2-fold luciferase activity) in data set [1] was 0.21 µM.
As to `CCc1cnc(-c2ccc(-c3ccccc3)cc2)nc1` [Compound I-23], in data set [1], the EC (2-fold luciferase activity) stood at 0.27 µM.
As for `c1ccc(-c2ccc(-c3ccncn3)cc2)cc1` [Compound I-1], the EC (2-fold luciferase activity) in data set [1] came out at 0.63 µM.
The same measure, in the same setting: in the case of `COc1nc(OC)nc(-c2ccc(-c3ccccc3)cc2)n1` [Compound I-29] it was 2.5 µM.
Take `c1ccc(-c2cc(-c3ccccc3)ncn2)cc1` [Compound I-5]: the melting point was in the range of 91 to 92 °C.
Consider `C#CC1COc2ccc(-c3c(OC)cc(-c4ccc(O)cc4)c(OC)c3O)cc2O1` (stereo not drawn) [Compound I-44], for which the EC (2-fold luciferase activity) in data set [1] was found to be 0.6 µM.
As to `COc1cccc(-c2cnc(-c3cccc(OC)c3)cn2)c1` [Compound I-35], the EC (2-fold luciferase activity) in data set [1] turned out to be 0.29 µM.
For `CC(=O)Nc1ccc(-c2ccc(-c3ccccn3)cc2)cc1` [Compound I-43], the EC (2-fold luciferase activity) in data set [1] came to 0.3 µM.
For the compound `COc1cc(-c2ccc(O)cc2)c(OC)c(O)c1-c1ccc2c(c1)OC(O)CO2` (stereo not drawn) [Compound I-45], the EC (2-fold luciferase activity) in data set [1] is 2.4 µM.
For the compound `c1ccc(-c2cnc(-c3ccccc3)nc2)cc1` [Compound I-2], the EC (2-fold luciferase activity) in data set [1] is 0.2 µM.
As to `COc1ccc(-c2ccc(-c3ccccc3)cc2)nn1` [Compound I-27, 3-(4-Biphenyl)-6-methoxypyridazin], the EC (2-fold luciferase activity) in data set [1] came to 0.06 µM.
Regarding `c1ccc(-c2ccc(-c3ccoc3)cc2)nc1` [Compound I-37], the EC (2-fold luciferase activity) in data set [1] was 4.4 µM.
The same measure, in the same setting: in the case of `Clc1ccc(-c2ccc(-c3ccccc3)cc2)nn1` [Compound I-26] it was 0.27 µM.
Consider `c1ccc(-c2cccc(-c3ncccn3)c2)cc1` [Compound I-9], for which the melting point fell in the range of 46 to 48 °C.
As for `c1ccc(-c2ccc(-c3ccccn3)cc2)cc1` [Compound I-20], in data set [1], the EC (2-fold luciferase activity) was found to be 0.23 µM.
As to `Cc1ccc(-c2ccc(-c3ccccn3)cc2)cc1` [Compound I-42], the EC (2-fold luciferase activity) in data set [1] was determined as 0.09 µM.
`COc1cc(-c2ccc(O)cc2)c(OC)c(O)c1-c1ccc(OC/C=N/C2CCN(C)CC2)c(O)c1` [Compound I-48]: the EC (2-fold luciferase activity) in data set [1] was 1.6 µM.
For the compound `Cc1cc(-c2ccc(-c3ccccc3)cc2)nc2ccccc12` [Compound I-18], the EC (2-fold luciferase activity) in data set [1] was 1.1 µM.
`c1ccc(-c2ccc(-c3cnccn3)cc2)cc1` [Compound I-10] displayed a melting point of 177 to 178 °C. In addition, in data set [1], the EC (2-fold luciferase activity) was 0.71 µM.
As for `c1ccc(-c2ccc(-c3cnc4ccccc4n3)cc2)cc1` [Compound I-16], in data set [1], the EC (2-fold luciferase activity) was found to be 0.1 µM.
`c1ccc(-c2ccc(-c3ccsc3)cc2)nc1` [Compound I-36, 2-[4-(3-Thienyl)phenyl]pyridine]: the EC (2-fold luciferase activity) in data set [1] stood at 1.3 µM.
